# Measured values as given in patent US5075335A, “Guanidinobenzoic ester derivative” (Eisai Co., Ltd., priority 1985, dated 1991).
# pIC50: −log10 of the molar value.
# Columns and labels:
# Format in all cases: biochemical
# trypsin = assay: Trypsin inhibition in vitro (hydrolysis of benzoyl-D,L-arginine-p-nitroanilide hydrochloride); conditions: 0.5 μg/ml of trypsin, 25° C, read-out: 50% Inhibitory concentration (IC50) Trypsin
# Protocol: (§1) The effects of typical compounds of the present invention in inhibiting trypsin, plasmin and thrombin in vitro were examined. The trypsin-inhibiting effect was represented in terms of a molar concentration of the compound which inhibits the activity of 0.5 μg/ml of trypsin to hydrolyze benzoyl-D,L-arginine-p-nitroanilide hydrochloride by 50% at 25° C. In the determination of the plasmin- and thrombin-inhibiting effects, 50% inhibitory concentrations were determined by using H-D-Val-Leu-L-Lys-p-nitroanilide dihydrochloride and H-D-Phe-L-pipecolyl-L-Arg-p-nitroanilide dihydrochloride, respectively, as the substrate.
# plasmin = plasmin (Homo sapiens, UniProt P00747); assay: Plasmin inhibition in vitro (substrate H-D-Val-Leu-L-Lys-p-nitroanilide dihydrochloride); conditions: read-out: 50% Inhibitory concentration (IC50) Plasmin
# Sequence of plasmin (P00747 581-810 limits assumed, species assumed): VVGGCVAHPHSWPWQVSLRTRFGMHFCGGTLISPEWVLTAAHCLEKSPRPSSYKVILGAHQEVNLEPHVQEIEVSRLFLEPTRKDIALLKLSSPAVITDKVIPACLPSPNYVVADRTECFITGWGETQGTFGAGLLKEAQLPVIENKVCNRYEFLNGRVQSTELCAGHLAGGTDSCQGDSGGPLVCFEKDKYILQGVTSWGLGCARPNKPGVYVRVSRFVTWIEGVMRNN
# Sequence of plasmin (P00747 97-580 partner limits assumed, species assumed): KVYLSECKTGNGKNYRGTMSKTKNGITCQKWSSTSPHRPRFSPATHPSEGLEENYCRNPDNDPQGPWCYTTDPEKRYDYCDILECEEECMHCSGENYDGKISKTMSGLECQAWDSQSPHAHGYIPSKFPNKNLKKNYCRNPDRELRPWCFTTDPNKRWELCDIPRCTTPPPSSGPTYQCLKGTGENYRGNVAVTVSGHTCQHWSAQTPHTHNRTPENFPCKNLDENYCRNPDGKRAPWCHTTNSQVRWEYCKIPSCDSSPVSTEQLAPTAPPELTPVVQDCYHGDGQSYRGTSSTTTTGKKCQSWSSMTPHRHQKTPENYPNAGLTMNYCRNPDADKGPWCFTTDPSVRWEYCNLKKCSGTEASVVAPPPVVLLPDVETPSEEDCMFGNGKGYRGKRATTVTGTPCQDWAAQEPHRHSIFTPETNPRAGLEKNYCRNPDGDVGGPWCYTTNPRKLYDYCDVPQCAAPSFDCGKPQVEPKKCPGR
# Protocol: as §1
# thrombin = thrombin (Homo sapiens, UniProt P00734); assay: Thrombin inhibition in vitro (substrate H-D-Phe-L-pipecolyl-L-Arg-p-nitroanilide dihydrochloride); conditions: read-out: 50% Inhibitory concentration (IC50) Thrombin
# Protocol: as §1
Structure (SMILES),pIC50 (trypsin),pIC50 (plasmin),pIC50 (thrombin)
"N=C(N)Nc1ccc(C(=O)Oc2ccc(SCCN3C(=O)[C@H]4CCCC[C@H]4C3=O)cc2)cc1 [G, 4-[2-(cis-1,2-cyclohexanedicarboxyimido)-ethylthio]phenyl 4-guanidinobenzoate methanesulfonate]",7.21,6.00,6.80
"N=C(N)Nc1ccc(C(=O)Oc2ccc(SCCN3C(=O)CCC3=O)cc2)cc1 [B, 4-(2-succinimidoethylthio)phenyl 4-guanidinobenzoate methanesulfonate]",7.33,6.02,6.28
"N=C(N)Nc1ccc(C(=O)Oc2ccc(SCCO)cc2)cc1 [A, 4-(2-hydroxyethylthio)phenyl 4-guanidinobenzoate methanesulfonate]",7.37,5.89,6.60
"CCOCCSc1ccc(OC(=O)c2ccc(NC(=N)N)cc2)cc1 [C, 4-(2-ethoxyethylthio)phenyl 4-guanidinobenzoate methanesulfonate]",7.35,5.66,6.46
"CC1(C)OC(=O)N(CCSc2ccc(OC(=O)c3ccc(NC(=N)N)cc3)cc2)C1=O [I, 4-[2-(5,5-dimethyl-2,4-dioxooxazolidin-3-yl)ethylthio]phenyl 4-guanidinobenzoate methanesulfonate]",7.26,6.08,6.49
"N=C(N)Nc1ccc(C(=O)Oc2ccc(SCCCN3C(=O)CCC3=O)cc2)cc1 [D, 4-(3-succinimidopropylthio)phenyl 4-guanidinobenzoate methanesulfonate]",7.23,5.89,6.38

# Now those with a higher pIC50 (trypsin), led by results:
pIC50 (trypsin),pIC50 (plasmin),pIC50 (thrombin),Structure (SMILES)
7.47,6.19,6.57,"N=C(N)Nc1ccc(C(=O)Oc2ccc(SCCCCCN3C(=O)CCC3=O)cc2)cc1 [F, 4-(5-succinimidopentylthio)phenyl 4-guanidinobenzoate methanesulfonate]"
7.52,6.04,6.96,"N=C(N)Nc1ccc(C(=O)Oc2ccc(SCCN3C(=O)c4ccccc4C3=O)cc2)cc1 [H, 4-(2-phthalimidoethylthio)phenyl 4-guanidinobenzoate methanesulfonate]"
7.66,5.64,6.24,"N=C(N)Nc1ccc(C(=O)Oc2ccc(SCCCCN3C(=O)CCC3=O)cc2)cc1 [E, 4-(4-succinimidobutylthio)phenyl 4-guanidinobenzoate methanesulfonate]"
